Source: patent EP0436902B1, “5-Fluorouracil derivatives” (OTSUKA PHARMACEUTICAL CO., LTD., priority 1984, dated 1986)

What follows are compounds tested on Sarcoma-180 (assay: Pharmacological Test I: antitumor effect on subcutaneously transplanted Sarcoma-180 solid tumor in mice). Details: Mus musculus, 240 h; ICR mice, Sarcoma-180 2 X 10⁷ cells subcutaneously; oral, once a day for 7 consecutive days, suspended in 5 % gum arabic; tumor weight on the 10th day; from dose-response curve; read-out: ED₅₀ (50 % tumor inhibition dose in which T/C is 0.5).
Type: in vivo
Method: Isophthaloyl chloride (1.50 g) and 6.0 ml of triethylamine were added to a solution of 1.00 g of 5-fluoro-1-(2-tetrahydrofuranyl)uracil in 50 ml of dioxane. The mixture was refluxed for 1.5 hours. The resulting precipitate was removed by filtration and the filtrate was concentrated. To the concentrate was added 50 ml of methylene chloride and thereto added was 10 ml of a solution of 1.50 g of 2,6-bis(trimethylsilyloxy)pyridine in methylene chloride. The mixture was left to stand at room temperature for 3 hours. The solvent was distilled off and the residue was subjected to silica gel column chromatography using as an eluent 2 % methanol-chloroform, giving 0.30 g of the title compound in a yield of 14 %. ¹H-NMR(CDCl₃)δ: 8.66-8.19 (3H, m, [drawing 76] 7.83-7.62 (2H, m, [drawing 77] and C₄-H of the pyridine ring) 7.52 (1H, d, J = 6Hz, C₆-H) 6.77 and 6.68 (each 1H, d, J = 8Hz, C₃·₅-H of the pyridine ring) 5.99-5.92 (1H, m, C1'-H) 4.30-3.88 (2H, m, C4'-H) 2.44-1.89 (4H, m, C2'·3'-H) Pharmacological Test I • (a) Sarcoma-180 subcultured in an ascites of ICR mice was diluted with a physiological saline solution and subcutaneously transplanted into the backs of ICR mice in an amount of 2 X 10⁷ cells each. Twenty-four hours after the transplantation, a test compound suspended in a 5 % solution of gum arabic was orally administered to each of mice once a day for 7 consecutive days.
The solid tumor was extirpated from under the dorsal skin of mice on the 10th day after the transplantation to measure the weight of the tumor. There was determined the ratio (T/C) of the weight or tumor (T) cut out from the group of mice treated with the test compound to the weight of tumor (C) from the group of mice not treated therewith. The 50 % tumor inhibition dose (ED₅₀ value) in which T/C is 0.5 was determined from the dose-response curve of dosage and the ratio (T/C).
Table 1 below lists the results together with the value obtained by using as a control an anti-cancer preparation containing 5-fluoro-1-(2-tetrahydrofuranyl)uracil and uracil in a ratio by weight of 1 to 4.

Row | Structure (SMILES) | ED50 [mg/kg]
1 | O=C(Oc1cc(OC(=O)c2cccc(C(=O)n3c(=O)c(F)cn(C4CCCO4)c3=O)c2)c(Cl)cn1)c1ccccc1 (centres unmarked) [Example 3, 3-[3-(2-benzoyloxy-5-chloro-4-pyridyloxycarbonyl)benzoyl]-5-fluoro-1-(2-tetrahydrofuranyl)uracil] | 25
2 | O=C(Oc1cc[nH]c(=O)c1)c1cccc(C(=O)n2c(=O)c(F)cn(C3CCCO3)c2=O)c1 (centres unmarked) [Example 1, 3-[3-(1,2-dihydro-2-oxo-4-pyridyloxycarbonyl)benzoyl]-5-fluoro-1-(2-tetrahydrofuranyl)uracil] | 10
3 | O=C(Oc1cc(=O)n(C2CCCO2)cc1Cl)c1cccc(C(=O)n2c(=O)c(F)cn(C3CCCO3)c2=O)c1 (centres unmarked) [Example 10, 3-[3-[5-chloro-1,2-dihydro-2-oxo-1-(2-tetrahydrofuranyl)-4-pyridyloxycarbonyl]benzoyl]-5-fluoro-1-(2-tetrahydrofuranyl)uracil] | 28
4 | N#Cc1ccc(OC(=O)c2ccco2)nc1OC(=O)c1cccc(C(=O)n2c(=O)c(F)cn(C3CCCO3)c2=O)c1 (centres unmarked) [Example 15, 3-[3-[3-cyano-6-(2-furoyloxy)-2-pyridyloxycarbonyl]benzoyl]-5-fluoro-1-(2-tetrahydrofuranyl)uracil] | 18
5 | O=C(Oc1cc(OC(=O)c2ccccc2)c(Cl)cn1)c1cccc(C(=O)n2c(=O)c(F)cn(C3CCCO3)c2=O)c1 (centres unmarked) [Example 4, 3-[3-(4-benzoyloxy-5-chloro-2-pyridyloxycarbonyl)benzoyl]-5-fluoro-1-(2-tetrahydrofuranyl)uracil] | 18
